Laboratory results reported in ChEMBL document CHEMBL1201862, “PubChem BioAssay data set” (2004).
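Step 1: Grow cells in 96-well plates. Step 2: Expose to compound for 48 hours at 5 concentrations. Step 3: Interpolate endpoints linearly; if unreached, use highest concentration. Abbreviation: GI50, concentration required for 50% inhibition of growth.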 Activity calls are given as the source filed them. Rule as the data show it: active = GI50 up to about 1.1 µM and inactive = higher.

How the values were obtained:
Assay in all cases: inhibition of tumour cell growth, NCI panel, 48 h
HCT-116 = test system: HCT-116
Malme-3M = test system: Malme-3M
TK-10 = test system: TK-10
A549 = test system: A549
NCI-H522 = test system: NCI-H522
SW-620 = test system: SW-620
SNB-75 = test system: SNB-75
RXF 631 = test system: RXF 631
OVCAR-5 = test system: OVCAR-5
SK-MEL-5 = test system: SK-MEL-5
SK-MEL-2 = test system: SK-MEL-2
UACC-257 = test system: UACC-257
UO-31 = test system: UO-31
HOP-92 = test system: HOP-92
HOP-62 = test system: HOP-62
RPMI-8226 = test system: RPMI-8226
COLO 205 = test system: COLO 205
U-251 = test system: U-251
MOLT-4 = test system: MOLT-4
DLD-1 = test system: DLD-1
HT-29 = test system: HT-29
CCRF-CEM = test system: CCRF-CEM
UACC-62 = test system: UACC-62
SF-539 = test system: SF-539
IGROV-1 = test system: IGROV-1
KM12 = test system: KM12
SNB-19 = test system: SNB-19
786-0 = test system: 786-0
SK-MEL-28 = test system: SK-MEL-28
SF-268 = test system: SF-268
RXF 393 = test system: RXF 393
HCC 2998 = test system: HCC 2998
K562 = test system: K562
LXFL 529 = test system: LXFL 529
HL-60 = test system: HL-60
CAKI-1 = test system: CAKI-1
ACHN = test system: ACHN
DMS-273 = test system: DMS-273
M19-MEL = test system: M19-MEL
SN12C = test system: SN12C
NCI-H23 = test system: NCI-H23
NCI-H460 = test system: NCI-H460
EKVX = test system: EKVX
OVCAR-8 = test system: OVCAR-8
SK-OV-3 = test system: SK-OV-3
SF-295 = test system: SF-295
HCT-15 = test system: HCT-15
SNB-78 = test system: SNB-78
OVCAR-4 = test system: OVCAR-4
M14 = test system: M14
OVCAR-3 = test system: OVCAR-3
LOX IMVI = test system: LOX IMVI
XF498 = test system: XF498
A498 = test system: A498
DMS-114 = test system: DMS-114
KM-20L2 = test system: KM-20L2
NCI-H226 = test system: NCI-H226

Question: For O=C1c2ccc(O)cc2C(=O)c2ccc(O)cc21, which GI50 (HCT-116) is on record?
Answer: 39.4 µM (inactive)

Question: What about the GI50 (Malme-3M) of the same molecule?
Answer: 57.4 µM (inactive)

Question: And the GI50 (TK-10)?
Answer: 61.8 µM (inactive)

Question: And the GI50 (A549)?
Answer: 54.6 µM (inactive)

Question: And the GI50 (NCI-H522)?
Answer: 32.6 µM (inactive)

Question: What about the GI50 (SW-620) of the same molecule?
Answer: 92.5 µM (inactive)

Question: What about the GI50 (SNB-75) of the same molecule?
Answer: 29.6 µM (inactive)

Question: And the GI50 (RXF 631)?
Answer: 75 µM (inactive)

Question: What about the GI50 (OVCAR-5) of the same molecule?
Answer: > 100 µM (inactive)

Question: And the GI50 (SK-MEL-5)?
Answer: > 100 µM (inactive)

Question: And the GI50 (SK-MEL-2)?
Answer: 45.7 µM (inactive)

Question: And the GI50 (UACC-257)?
Answer: > 100 µM (inactive)

Question: What about the GI50 (UO-31) of the same molecule?
Answer: 24.3 µM (inactive)

Question: And the GI50 (HOP-92)?
Answer: 63.1 µM (inactive)

Question: What about the GI50 (HOP-62) of the same molecule?
Answer: 30.6 µM (inactive)

Question: What about the GI50 (RPMI-8226) of the same molecule?
Answer: 42.8 µM (inactive)

Question: What about the GI50 (COLO 205) of the same molecule?
Answer: > 100 µM (inactive)

Question: What about the GI50 (U-251) of the same molecule?
Answer: 49.4 µM (inactive)

Question: What about the GI50 (MOLT-4) of the same molecule?
Answer: 31.6 µM (inactive)

Question: And the GI50 (DLD-1)?
Answer: 38.6 µM (inactive)

Question: What about the GI50 (HT-29) of the same molecule?
Answer: > 100 µM (inactive)

Question: And the GI50 (CCRF-CEM)?
Answer: 59.3 µM (inactive)

Question: And the GI50 (UACC-62)?
Answer: 56.8 µM (inactive)

Question: And the GI50 (SF-539)?
Answer: 40.9 µM (inactive)

Question: What about the GI50 (IGROV-1) of the same molecule?
Answer: 48.3 µM (inactive)

Question: What about the GI50 (KM12) of the same molecule?
Answer: 88.7 µM (inactive)

Question: And the GI50 (SNB-19)?
Answer: 78.9 µM (inactive)

Question: And the GI50 (786-0)?
Answer: 42.7 µM (inactive)

Question: And the GI50 (SK-MEL-28)?
Answer: 78.5 µM (inactive)

Question: And the GI50 (SF-268)?
Answer: 55.3 µM (inactive)

Question: And the GI50 (RXF 393)?
Answer: 29.9 µM (inactive)

Question: What about the GI50 (HCC 2998) of the same molecule?
Answer: 46.3 µM (inactive)

Question: And the GI50 (K562)?
Answer: 50.1 µM (inactive)

Question: And the GI50 (LXFL 529)?
Answer: 87.3 µM (inactive)

Question: What about the GI50 (HL-60) of the same molecule?
Answer: 70.5 µM (inactive)

Question: What about the GI50 (CAKI-1) of the same molecule?
Answer: 32.9 µM (inactive)

Question: And the GI50 (ACHN)?
Answer: 36.9 µM (inactive)

Question: And the GI50 (DMS-273)?
Answer: 49.2 µM (inactive)

Question: What about the GI50 (M19-MEL) of the same molecule?
Answer: > 100 µM (inactive)

Question: What about the GI50 (SN12C) of the same molecule?
Answer: 73.5 µM (inactive)

Question: What about the GI50 (NCI-H23) of the same molecule?
Answer: 59.2 µM (inactive)

Question: What about the GI50 (NCI-H460) of the same molecule?
Answer: 53.2 µM (inactive)

Question: And the GI50 (EKVX)?
Answer: 67.3 µM (inactive)

Question: And the GI50 (OVCAR-8)?
Answer: > 100 µM (inactive)

Question: And the GI50 (SK-OV-3)?
Answer: 33.2 µM (inactive)

Question: And the GI50 (SF-295)?
Answer: > 100 µM (inactive)

Question: And the GI50 (HCT-15)?
Answer: 52.5 µM

Question: And the GI50 (SNB-78)?
Answer: > 100 µM (inactive)

Question: And the GI50 (OVCAR-4)?
Answer: > 100 µM (inactive)

Question: What about the GI50 (M14) of the same molecule?
Answer: 58.9 µM (inactive)

Question: What about the GI50 (OVCAR-3) of the same molecule?
Answer: 78.5 µM (inactive)

Question: And the GI50 (LOX IMVI)?
Answer: 58.1 µM (inactive)

Question: What about the GI50 (XF498) of the same molecule?
Answer: > 100 µM (inactive)

Question: And the GI50 (A498)?
Answer: 38.5 µM (inactive)

Question: What about the GI50 (DMS-114) of the same molecule?
Answer: 95.9 µM (inactive)

Question: What does the source list for O=C(Nc1ccc(Cl)cc1C(=O)O)c1ccc([N+](=O)[O-])cc1?
Answer: GI50 (HCT-116): 12.2 µM (inactive); GI50 (Malme-3M): 4.95 µM (inactive); GI50 (TK-10): 31.4 µM (inactive); GI50 (KM-20L2): 21.8 µM (inactive); GI50 (A549): 33.7 µM (inactive); GI50 (SW-620): 29.7 µM (inactive); GI50 (SNB-75): 45.4 µM (inactive); GI50 (RXF 631): 30.1 µM (inactive); GI50 (OVCAR-5): 22.5 µM (inactive); GI50 (SK-MEL-5): 20.3 µM (inactive); GI50 (SK-MEL-2): 3.72 µM (inactive); GI50 (UACC-257): 18.6 µM (inactive); GI50 (UO-31): 19 µM (inactive); GI50 (HOP-92): 8.18 µM (inactive); GI50 (HOP-62): 10.2 µM (inactive); GI50 (RPMI-8226): 26.5 µM (inactive); GI50 (COLO 205): 18.7 µM (inactive); GI50 (U-251): 18.8 µM (inactive); GI50 (MOLT-4): 22.4 µM (inactive); GI50 (DLD-1): 7.06 µM (inactive); GI50 (HT-29): 18.9 µM (inactive); GI50 (CCRF-CEM): 20.2 µM (inactive); GI50 (UACC-62): 14.5 µM (inactive); GI50 (NCI-H226): 11.2 µM (inactive); GI50 (SF-539): 14.5 µM (inactive); GI50 (IGROV-1): 17.4 µM (inactive); GI50 (KM12): 18.4 µM (inactive); GI50 (SNB-19): 14.5 µM (inactive); GI50 (786-0): 13.4 µM (inactive); GI50 (SK-MEL-28): 28.2 µM (inactive); GI50 (SF-268): 20.2 µM (inactive); GI50 (HCC 2998): 11.2 µM (inactive); GI50 (K562): 20.8 µM (inactive); GI50 (LXFL 529): 15.5 µM (inactive); GI50 (HL-60): 22.4 µM (inactive); GI50 (ACHN): 17.1 µM (inactive); GI50 (DMS-273): 27.7 µM (inactive); GI50 (M19-MEL): 21.4 µM (inactive); GI50 (SN12C): 37.2 µM (inactive); GI50 (NCI-H460): 18.5 µM (inactive); GI50 (EKVX): 29.5 µM (inactive); GI50 (OVCAR-8): 26.7 µM (inactive); GI50 (SK-OV-3): 18.2 µM (inactive); GI50 (SF-295): 23.7 µM (inactive); GI50 (HCT-15): 16.7 µM; GI50 (SNB-78): 22.4 µM (inactive); GI50 (OVCAR-4): 18.6 µM (inactive); GI50 (M14): 24.3 µM (inactive); GI50 (OVCAR-3): 22.4 µM (inactive); GI50 (LOX IMVI): 19.9 µM (inactive); GI50 (XF498): 24.9 µM (inactive); GI50 (A498): 9.77 µM (inactive); GI50 (DMS-114): 9.08 µM (inactive)
